Columns and labels:
[1] = molecular target: T1, COX-2 (Homo sapiens, UniProt P35354); conditions: cited from earlier work
T1 sequence (P35354 18-604): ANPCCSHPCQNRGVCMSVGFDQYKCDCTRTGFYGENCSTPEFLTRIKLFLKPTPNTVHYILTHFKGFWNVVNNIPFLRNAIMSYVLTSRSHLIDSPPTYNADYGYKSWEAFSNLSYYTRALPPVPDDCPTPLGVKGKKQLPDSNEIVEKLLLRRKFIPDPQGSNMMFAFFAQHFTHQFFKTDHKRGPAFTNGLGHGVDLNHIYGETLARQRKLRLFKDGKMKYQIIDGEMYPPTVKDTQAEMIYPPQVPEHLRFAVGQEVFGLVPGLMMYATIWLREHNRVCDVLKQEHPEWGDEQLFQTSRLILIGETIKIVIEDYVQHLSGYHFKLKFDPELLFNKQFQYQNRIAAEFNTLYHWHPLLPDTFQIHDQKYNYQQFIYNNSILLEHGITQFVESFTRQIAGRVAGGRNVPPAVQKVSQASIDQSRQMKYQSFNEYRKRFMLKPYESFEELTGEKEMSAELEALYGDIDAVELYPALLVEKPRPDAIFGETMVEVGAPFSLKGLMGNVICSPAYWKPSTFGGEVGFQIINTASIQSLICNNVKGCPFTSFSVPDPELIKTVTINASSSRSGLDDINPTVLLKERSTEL

[2] = system: HIV-1Ba-L; assay: HIV-1 infection of PBMC, p24-core antigen ELISA; type: cell-based; conditions: for antiviral activity compared to compound 18 / antiviral activity compared to APHS: PBMC, HIV-1Ba-L
Procedure: To correct for the input virus, an extra control consisting of medium containing the same amount of input virus as added to the cells was included in the experiment. The amount of p24 in this control was subsequently subtracted from the p24 values of the samples in order to obtain the exact amount of p24 produced by the cells. p24-core antigen quantification by ELISA After 2 or 7 days incubation, samples of the supernatants were collected, inactivated by addition of Empigen (Calbiochem, La Jolla, CA, USA) and by heat inactivation at 56°C for 30 min. p24-core antigen concentration was determined by an enzyme linked immunoabsorbent assay (ELISA) (AMPAK™, DAKO, Cambridgeshire, UK) as described previously ^18,19. The optical density values were converted into p24 concentration (ng/ml) with the use of a calibration curve made by serial dilutions of recombinant p24 protein (NIBSC, UK) that was submitted to the same treatment as the samples.
(§1) To correct for the input virus, an extra control consisting of medium containing the same amount of input virus as added to the cells was included in the experiment. The amount of p24 in this control was subsequently subtracted from the p24 values of the samples in order to obtain the exact amount of p24 produced by the cells.
(§2) After 7 days incubation, samples of the supernatants were collected, inactivated by addition of Empigen (Calbiochem, La Jolla, CA, USA) and by heat inactivation at 56°C for 30 min. p24-core antigen concentration was determined by an ELISA (AMPAK™, DAKO, Cambridgeshire, UK) as described previously ^39,40. The optical density values were converted into p24 concentration (ng/ml) with the use of a calibration curve made by serial dilutions of recombinant p24 protein (NIBSC, UK) that was submitted to the same treatment as the samples.
as §1
as §2, with “enzyme linked immunoabsorbent assay (ELISA)” for “ELISA”, “15,16.” for “^39,40.”

[3] = system: HIV-1Ba-L; assay: Combination of HIV-1 inhibitors in HIV-1Ba-L infected PBMC (checker board, CalcuSyn)
Procedure: After 7 days of incubation, p24 antigen in culture supernatant was quantified by ELISA and cellular viability was assessed by a cytotoxicity assay. fa was calculated for each drug combination after p24 quantification. Using the CalcuSyn program, dose-effect curves were plotted for each drug combination, i.e., each dose was plotted against the corresponding fa value. […] CI values were calculated using the mutually nonexclusive assumption.

[4] = system: PBMC; assay: Cellular viability assay (MTT) of PBMC; conditions: PBMC
[5] = in vitro; conditions: human, pbmc
[6] = Human immunodeficiency virus 1, PBMC, 168 h, read-out: IC50 Drug, drug alone, head over this column prints Combination
[7] = read-out: IC50 Combination Drug, drug in combination with APHS at the equipotent ratio (1 : 1)
[8] = PBMC infected with HIV-1Ba-L, p24 antigen after 7 days, read-out: IC50
[9] = Human immunodeficiency virus 1, PBMC, 168 h
[10] = Human immunodeficiency virus 1, 168 h, PBMC infected with HIV-1Ba-L, p24 antigen after 7 days, read-out: IC50

CCCCC#CCSc1ccccc1O [APHS-d3]
COX-2 activity, potency and selectivity compared with APHS [1]: without COX-2 activity

CC(=O)Oc1ccccc1C(=O)O [aspirin, reference compound]
times less potent than APHS against COX-2 [1]: 60
times less selective than APHS for COX-2 [1]: 100

CCCCSc1ccccc1OC(C)=O [compound 22]
antiviral activity compared to compound 18 [2]: worse

CC(C)c1nc(CN(C)C(=O)N[C@H](C(=O)N[C@@H](Cc2ccccc2)C[C@H](O)[C@H](Cc2ccccc2)NC(=O)OCc2cncs2)C(C)C)cs1 [RTV, ritonavir]
IC50 [3, 6]: 6 nM
IC50 [3, 7]: 3 nM

CCCCCCCSc1ccc(O)cc1 [compound 15]
IC50 [2, 8]: 3000 nM
antiviral activity compared to APHS [2]: increased
cytotoxicity compared to APHS [4]: increased
fold increase in cytotoxicity compared to APHS [4]: about 10

CCCCCSc1ccccc1O [compound 19]
IC50 [2, 9]: 900 nM
antiviral activity compared to APHS [2]: improved

CCCCCCCCSc1ccccc1OC(C)=O [compound 9]
IC50 [2, 10]: 20000 nM
CC50 at 168 h [5]: 135000 nM

CCCCCCCSc1ccccc1O [compound 10]
antiviral activity compared to APHS [2]: less antiviral activity than APHS
cytotoxicity compared to APHS [4]: increase

CC(C)(C)NC(=O)[C@@H]1CN(Cc2cccnc2)CCN1C[C@@H](O)C[C@@H](Cc1ccccc1)C(=O)N[C@H]1c2ccccc2C[C@H]1O [IDV, indinavir]
IC50 [3, 6]: 11 nM
IC50 [3, 7]: 5 nM

CCCCCCSc1ccccc1O [compound 17]
IC50 [2, 9]: 4000 nM
antiviral activity compared to APHS [2]: improvement
cytotoxicity compared to APHS [4]: increase

CCCCSc1ccccc1O [compound 21]
IC50 [2, 9]: 3000 nM
antiviral activity compared to APHS [2]: improved

CCCCCCCSc1ccccc1OC(=O)c1ccccc1 [compound 14, Phenol, 2-(heptylthio)-, benzoate]
antiviral activity compared to APHS [2]: decreased
cytotoxicity compared to APHS [4]: increased

Nc1ccn([C@@H]2CS[C@H](CO)O2)c(=O)n1 [3TC, lamivudine]
IC50 [3, 6]: 10 nM
IC50 [3, 7]: 3 nM

CCCCCCCSc1ccccc1OC(C)=O [compound 11]
IC50 [2, 10]: 10000 nM
CC50 at 168 h [5]: 48000 nM

CCCCCCSc1ccccc1OC(C)=O [compound 18]
IC50 [2, 8]: 3000 nM
CC50 ([4]; read-out: TC50, 7 days, MTT): 119000 nM

CSc1ccccc1OC(C)=O [APHS-d4]
COX-2 activity, potency and selectivity compared with APHS [1]: more selective than APHS
times less potent than APHS against COX-2 [1]: 100

CCSc1ccccc1OC(C)=O [compound 26]
antiviral activity compared to compound 18 [2]: worse

CCCSc1ccccc1O [compound 23]
IC50 [2, 9]: 5000 nM
antiviral activity compared to APHS [2]: improved

CCCCCCCSc1ccccc1OC(=O)CCCC [compound 13, Phenol, 2-(heptylthio)-, valerate]
antiviral activity compared to APHS [2]: decreased
cytotoxicity compared to APHS [4]: decreased

CCCCC#CCSc1ccccc1OCC [compound 1, Benzene, 1-ethoxy-2-(2-heptynylthio)-]
antiviral activity compared to APHS [2]: decreased
cytotoxicity compared to APHS [4]: decreased

CCCSc1ccccc1OC(C)=O [compound 24]
antiviral activity compared to compound 18 [2]: worse

CCCCCSc1ccccc1OC(C)=O [compound 20]
antiviral activity compared to compound 18 [2]: worse

CCCCC#CCS(=O)(=O)c1ccccc1OC(C)=O [APHS-d1]
COX-2 activity, potency and selectivity compared with APHS [1]: without anti-COX-2 activity

CCCCOCCSc1ccccc1OC(=O)C(F)(F)F [compound 7, Acetic acid, trifluoro-, 2-(2-butoxyethylthio)phenylester]
antiviral activity compared to APHS [2]: decreased
cytotoxicity compared to APHS [4]: decreased

CCCCCCCSc1ccccc1OC(C)=O [APHS-d2]
COX-2 activity, potency and selectivity compared with APHS [1]: as potent as APHS but less selective against COX-2 than APHS

O=C1Nc2ccc(Cl)cc2[C@@](C#CC2CC2)(C(F)(F)F)O1 [EFV, efavirenz]
IC50 [3, 6]: 1 nM
IC50 [3, 7]: 0.2 nM

CCCCCCCSc1ccc(OC(C)=O)cc1 [compound 16, Phenol, 4-(heptylthio)-, acetate]
IC50 [2, 10]: 2000 nM
antiviral activity compared to APHS [2]: increase
cytotoxicity compared to APHS [4]: increase
fold increase in cytotoxicity compared to APHS [4]: about 10

CCCCCCCSc1ccccc1OC(=O)C(F)(F)F [compound 12, Acetic acid, trifluoro-, 2-(heptylthio) phenylester]
antiviral activity compared to APHS [2]: decreased
cytotoxicity compared to APHS [4]: decreased

CCCCCCCCSc1ccccc1O [compound 8]
antiviral activity compared to APHS [2]: less antiviral activity than APHS
cytotoxicity compared to APHS [4]: increase

CCSc1ccccc1O [compound 25]
IC50 [2, 9]: 4000 nM
antiviral activity compared to APHS [2]: improved

— patent EP1452605A1, “Method for determining antiviral activity” (Universiteit Utrecht Holding B.V., priority 2003, dated 2004)
